Measurements: PubChem BioAssay (NCI)
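Assay format: 96-well plates, 48-hour exposure. Abbreviation: GI50, concentration required for 50% inhibition of growth. TGI: concentration producing complete growth inhibition.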

Legend:
Assay in all cases: DTP human tumour cell line panel, 48 h
SNB-75 CNS = system: SNB-75 CNS
HCC-2998 colon = system: HCC-2998 colon
PC-3 prostate = system: PC-3 prostate
SF-268 CNS = system: SF-268 CNS
T-47D breast = system: T-47D breast
SR leukemia = system: SR leukemia
HS 578T breast = system: HS 578T breast

Structure (SMILES)	TGI (SNB-75 CNS) [µM]	TGI (HCC-2998 colon) [µM]	TGI (PC-3 prostate) [µM]	TGI (SF-268 CNS) [µM]	TGI (T-47D breast) [µM]	TGI (SR leukemia) [µM]	TGI (HS 578T breast) [µM]	GI50 (SNB-75 CNS) [µM]	GI50 (HCC-2998 colon) [µM]	GI50 (PC-3 prostate) [µM]	GI50 (SF-268 CNS) [µM]	GI50 (T-47D breast) [µM]	GI50 (HS 578T breast) [µM]
CC(C)OC(=O)[C@@H](O)[C@H](CO)C1=CC([Si](C)(C)c2ccccc2)=CON1	69.2	> 100	> 100	> 100	> 100	> 100	–	–	–	–	–	–	–
COc1ccc(/C=N/NC(=O)c2cnc3[nH]c(=O)n(C)c(=O)c3c2)cc1	38.6	> 100	> 100	> 100	> 100	–	> 100	–	–	–	–	–	–
NC1CC(=O)c2sccc21 (stereo not drawn)	> 100	> 100	> 100	> 100	> 100	> 100	> 100	–	–	–	–	–	–
Cc1nnc(-n2c(O)cc(=O)n(-c3ccccc3)c2=S)nc1/C=C/c1ccc(N(C)C)cc1	21.1	22.7	> 46.2	> 53.8	> 60.7	> 100	56.3	–	–	–	–	–	–
Cc1ccc(S(=O)(=O)NC(=O)NC(Cc2ccc(O)c(O)c2)C(=O)O)cc1 (stereo not drawn)	–	–	> 100	2.8	> 100	–	–	–	–	–	–	–	–
CC[C@@]12C=CC(=S)N(CCSc3ccccc3)[C@@H]1c1c(n(S(=O)(=O)c3ccc(OC)cc3)c3ccccc13)CC2	> 100	> 100	> 100	> 100	> 100	–	> 100	–	–	–	–	–	–
C=CCCCCCCCCCOC1C=CC(OC(C)=O)C(COC(C)=O)O1 (stereo not drawn)	–	> 100	> 100	> 100	> 100	> 100	63	–	–	–	–	–	–
CC1CCc2sc3[nH]c(=S)n(-c4ccccc4)c(=O)c3c2C1 (stereo not drawn)	91	67.8	> 100	> 100	> 100	> 100	> 100	–	–	–	–	–	–
COc1cc2c(cc1OCCCC(=O)Nc1cc(C(=O)NCCCN(C)C)n(C)n1)N=CC1CCCN1C2=O (stereo not drawn)	22.3	28.3	50.4	> 50.4	> 100	0.59	> 100	–	–	–	–	–	–
COc1cc2c(cc1OC)-c1cc3cc(OC)c(OC)cc3c(=O)n1CC2	> 79.3	> 100	> 100	> 100	8.34	> 100	> 57.5	–	–	–	–	–	–
C#CCn1c(=O)c(Cl)cn(/C(=C/C(=O)OCC)C(=O)OCC)c1=O	34.2	–	31.5	51.1	5.27	–	> 100	–	–	–	–	–	–
NC(=O)CC(N=C1C(=O)OC(C(O)CO)C1=NC(CC(N)=O)C(=O)O)C(=O)O (stereo not drawn)	> 100	> 100	> 100	> 100	> 100	> 100	> 100	–	–	–	–	–	–
O=[N+]([O-])c1c2nc3n(c2cc2c1nc1n2CCC1)CCC3	> 100	> 100	> 100	> 100	> 100	> 100	> 100	–	–	–	–	–	–
c1ccc2nc(CCC3CCCCN3)ccc2c1 (stereo not drawn)	> 100	> 100	> 100	> 100	> 100	> 100	> 100	–	–	–	–	–	–
c1ccc(C2=NCCc3cc4c(cc32)OCO4)cc1	–	> 100	> 100	> 100	> 100	> 100	> 100	–	–	–	–	–	–
CC12CCC(C(Nc3ccccn3)C1=O)C2(C)C (stereo not drawn)	> 100	> 100	> 100	> 100	> 100	> 100	> 100	–	–	–	–	–	–
COc1ccccc1NC(=O)O/N=C(/Cl)C(C)C	27.1	30.1	33.2	32.5	59.2	4.73	67.9	–	–	–	–	–	–
C=C(C)[C@@H]1CCC2=C[C@H](CC(C)=CC3=CC(C)=C(O3)[C@@H]1OC)OC2=O	> 100	> 100	> 100	> 100	> 100	> 100	> 100	–	–	–	–	–	–
O=C1C(NCCN2CCOCC2)=C(Cl)C(=O)c2ncccc21	2.35	1.94	1.95	3.37	3.14	3.3	2.87	–	–	–	–	–	–
Cc1cc2nc(N3C(=O)/C(=C/c4ccc(Cl)cc4)N=C3c3ccccc3)sc2cc1C	63.9	48.5	98.9	> 100	> 100	> 100	74.2	–	–	–	–	–	–
C=C(C(=O)OC)c1cc2ccccc2n1S(=O)(=O)c1ccccc1	14.5	8.35	9.51	8.22	5.51	> 100	18.8	–	–	–	–	–	–
COc1ccc(-c2cc(-c3cc(F)c(Cl)cc3Cl)on2)cc1OC	> 100	–	> 100	> 100	> 100	13.1	> 100	–	–	–	–	–	–
Oc1ccc(C#CCOc2ccccc2)cc1CNCCN(Cc1ccccn1)Cc1ccccn1	4.13	3.36	4.06	4.29	13.8	–	6.14	1.24	1.65	0.799	1.37	2.88	1.69
CCN(CC)C(=O)N1CN(c2ccccc2)C2(CCN(CCCSc3ccc(F)cc3)CC2)C1=O	50.3	–	36.5	36.1	47.1	18	16.6	–	–	–	–	–	–
Clc1nc(Cl)c(CBr)c(Cl)n1	24.8	30.8	17.7	23.1	36.1	> 100	> 56.8	–	–	–	–	–	–
N#Cc1nc(CCC(c2nc(C#N)c(N)o2)N2C(=O)c3ccccc3C2=O)oc1N (stereo not drawn)	> 100	> 100	> 100	> 100	> 100	> 100	> 100	–	–	–	–	–	–
O=C1ON=C2C3CC4CC12CC1(C3)C(=O)ON=C41	> 100	> 100	> 100	–	–	> 100	–	–	–	–	–	–	–
